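Five compound concentrations were applied to cells in 96-well plates for 48 hours; endpoints were derived by simple linear interpolation of the resulting dose-response curve. Definition used: TGI = concentration required for complete inhibition of growth.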
Tests used:
Test in all cases: DTP human tumour cell line panel, 48 h
786-0 renal = test system: 786-0 renal
A498 renal = test system: A498 renal
A549 NSCLC = test system: A549 NSCLC
ACHN renal = test system: ACHN renal
CCRF-CEM leukemia = test system: CCRF-CEM leukemia
COLO 205 colon = test system: COLO 205 colon
DLD-1 colon = test system: DLD-1 colon
DMS 114 small cell lung = test system: DMS 114 small cell lung
DMS 273 small cell lung = test system: DMS 273 small cell lung
EKVX NSCLC = test system: EKVX NSCLC
HCC-2998 colon = test system: HCC-2998 colon
HCT-116 colon = test system: HCT-116 colon
HCT-15 colon = test system: HCT-15 colon
HOP-18 NSCLC = test system: HOP-18 NSCLC
HOP-62 NSCLC = test system: HOP-62 NSCLC
HOP-92 NSCLC = test system: HOP-92 NSCLC
HT29 colon = test system: HT29 colon
IGROV1 ovarian = test system: IGROV1 ovarian
K-562 leukemia = test system: K-562 leukemia
KM12 colon = test system: KM12 colon
KM20L2 colon = test system: KM20L2 colon
LOX IMVI melanoma = test system: LOX IMVI melanoma
LXFL 529 NSCLC = test system: LXFL 529 NSCLC
M14 melanoma = test system: M14 melanoma
M19-MEL melanoma = test system: M19-MEL melanoma
MALME-3M melanoma = test system: MALME-3M melanoma
MOLT-4 leukemia = test system: MOLT-4 leukemia
NCI-H226 lung = test system: NCI-H226 lung
NCI-H23 lung = test system: NCI-H23 lung
NCI-H460 lung = test system: NCI-H460 lung
NCI-H522 lung = test system: NCI-H522 lung
OVCAR-3 ovarian = test system: OVCAR-3 ovarian
OVCAR-4 ovarian = test system: OVCAR-4 ovarian
OVCAR-5 ovarian = test system: OVCAR-5 ovarian
OVCAR-8 ovarian = test system: OVCAR-8 ovarian
RXF 393 renal = test system: RXF 393 renal
SF-268 CNS = test system: SF-268 CNS
SF-295 CNS = test system: SF-295 CNS
SF-539 CNS = test system: SF-539 CNS
SK-MEL-2 melanoma = test system: SK-MEL-2 melanoma
SK-MEL-28 melanoma = test system: SK-MEL-28 melanoma
SK-MEL-5 melanoma = test system: SK-MEL-5 melanoma
SK-OV-3 ovarian = test system: SK-OV-3 ovarian
SN12C renal = test system: SN12C renal
SNB-19 CNS = test system: SNB-19 CNS
SNB-75 CNS = test system: SNB-75 CNS
SNB-78 CNS = test system: SNB-78 CNS
SW-620 colon = test system: SW-620 colon
TK-10 renal = test system: TK-10 renal
U251 CNS = test system: U251 CNS
UACC-257 melanoma = test system: UACC-257 melanoma
UACC-62 melanoma = test system: UACC-62 melanoma
UO-31 renal = test system: UO-31 renal
XF 498 CNS = test system: XF 498 CNS

Q: Which TGI (786-0 renal) does the source give for COc1ccc2c(c1)[n+](=O)c(C(=O)C/C(=N/NC(=O)c1ccccc1O)C(=O)Nc1ccc(Cl)c(C(F)(F)F)c1)c(C)n2[O-] here?
A: Its TGI is > 100 µM.

Q: What about the TGI (A498 renal) of the same compound?
A: The TGI was > 100 µM.

Q: What about the TGI (A549 NSCLC) of the same compound?
A: The TGI was > 100 µM.

Q: What about the TGI (ACHN renal) of the same compound?
A: The TGI was > 100 µM.

Q: What about the TGI (CCRF-CEM leukemia) of the same compound?
A: The TGI was > 100 µM.

Q: And the TGI (COLO 205 colon)?
A: The TGI was > 100 µM.

Q: What about the TGI (DLD-1 colon) of the same compound?
A: Its TGI is > 100 µM.

Q: And the TGI (DMS 114 small cell lung)?
A: The TGI was > 100 µM.

Q: What about the TGI (DMS 273 small cell lung) of the same compound?
A: The TGI was > 100 µM.

Q: And the TGI (EKVX NSCLC)?
A: Its TGI is > 100 µM.

Q: What about the TGI (HCC-2998 colon) of the same compound?
A: The TGI was > 100 µM.

Q: What about the TGI (HCT-116 colon) of the same compound?
A: Its TGI is > 100 µM.

Q: And the TGI (HCT-15 colon)?
A: Its TGI is > 100 µM.

Q: And the TGI (HOP-18 NSCLC)?
A: The TGI was > 100 µM.

Q: What about the TGI (HOP-62 NSCLC) of the same compound?
A: The TGI was > 100 µM.

Q: And the TGI (HOP-92 NSCLC)?
A: The TGI was > 100 µM.

Q: What about the TGI (HT29 colon) of the same compound?
A: The TGI was > 100 µM.

Q: What about the TGI (IGROV1 ovarian) of the same compound?
A: Its TGI is > 100 µM.

Q: And the TGI (K-562 leukemia)?
A: The TGI was > 100 µM.

Q: What about the TGI (KM12 colon) of the same compound?
A: Its TGI is > 100 µM.

Q: What about the TGI (KM20L2 colon) of the same compound?
A: The TGI was > 100 µM.

Q: What about the TGI (LOX IMVI melanoma) of the same compound?
A: The TGI was > 100 µM.

Q: What about the TGI (LXFL 529 NSCLC) of the same compound?
A: The TGI was > 100 µM.

Q: What about the TGI (M14 melanoma) of the same compound?
A: The TGI was > 100 µM.

Q: And the TGI (M19-MEL melanoma)?
A: Its TGI is > 100 µM.

Q: What about the TGI (MALME-3M melanoma) of the same compound?
A: Its TGI is > 100 µM.

Q: What about the TGI (MOLT-4 leukemia) of the same compound?
A: Its TGI is > 100 µM.

Q: And the TGI (NCI-H226 lung)?
A: Its TGI is > 100 µM.

Q: What about the TGI (NCI-H23 lung) of the same compound?
A: The TGI was > 100 µM.

Q: And the TGI (NCI-H460 lung)?
A: Its TGI is > 100 µM.

Q: And the TGI (NCI-H522 lung)?
A: The TGI was > 100 µM.

Q: What about the TGI (OVCAR-3 ovarian) of the same compound?
A: Its TGI is 87.1 µM.

Q: What about the TGI (OVCAR-4 ovarian) of the same compound?
A: The TGI was > 100 µM.

Q: What about the TGI (OVCAR-5 ovarian) of the same compound?
A: The TGI was > 100 µM.

Q: What about the TGI (OVCAR-8 ovarian) of the same compound?
A: Its TGI is > 100 µM.

Q: And the TGI (RXF 393 renal)?
A: Its TGI is > 100 µM.

Q: And the TGI (SF-268 CNS)?
A: The TGI was > 100 µM.

Q: And the TGI (SF-295 CNS)?
A: The TGI was > 100 µM.

Q: And the TGI (SF-539 CNS)?
A: The TGI was > 100 µM.

Q: What about the TGI (SK-MEL-2 melanoma) of the same compound?
A: The TGI was > 100 µM.

Q: And the TGI (SK-MEL-28 melanoma)?
A: Its TGI is > 100 µM.

Q: What about the TGI (SK-MEL-5 melanoma) of the same compound?
A: Its TGI is > 100 µM.

Q: What about the TGI (SK-OV-3 ovarian) of the same compound?
A: Its TGI is > 100 µM.

Q: What about the TGI (SN12C renal) of the same compound?
A: The TGI was > 100 µM.

Q: And the TGI (SNB-19 CNS)?
A: The TGI was > 100 µM.

Q: What about the TGI (SNB-75 CNS) of the same compound?
A: Its TGI is > 100 µM.

Q: And the TGI (SNB-78 CNS)?
A: The TGI was > 100 µM.

Q: What about the TGI (SW-620 colon) of the same compound?
A: The TGI was > 100 µM.

Q: What about the TGI (TK-10 renal) of the same compound?
A: Its TGI is > 100 µM.

Q: And the TGI (U251 CNS)?
A: Its TGI is > 100 µM.

Q: What about the TGI (UACC-257 melanoma) of the same compound?
A: Its TGI is > 100 µM.

Q: What about the TGI (UACC-62 melanoma) of the same compound?
A: The TGI was > 100 µM.

Q: What about the TGI (UO-31 renal) of the same compound?
A: Its TGI is 50.5 µM.

Q: What about the TGI (XF 498 CNS) of the same compound?
A: The TGI was > 100 µM.
